The test system of data set [1] is NASH-modeled golden hamsters. In words: NASH-modeled golden hamster (method as Example 4, changed doses). It is filed as in vivo. Conditions: obeticholic acid 5 mg/kg. The method, then: The experimental method is referred to the Example 4, except for addition of Ezetimibe group (0.3 mg/kg), dosage change to 5 mg/kg obeticholic acid for the obeticholic acid group, as well as dosage change to 5 mg/kg obeticholic acid and 0.3 mg/kg Ezetimibe for the obeticholic acid+Ezetimibe group. Specifically, a normal group (A), a model group (B), an obeticholic acid group (C), an obeticholic acid+Ezetimibe group (D) and an Ezetimibe group (E) are included in this example.
Liver tissue samples from individual golden hamsters after treatment were subjected to paraffin-sectioning, with results shown in FIG. 3.

For a further data set, the system named is cytochrome p450. Conditions: 14C as a marker; cited from earlier work.
Data set [2] has as its system NAFLD-modeled golden hamsters. Kind of data set: Simple high-fat diet-induced NAFLD-modeled golden hamster. To be noted: obeticholic acid 1 mg/kg, Ezetimibe 1 mg/kg, x ± s; for ALP / ALT / AST / HDL-C / LDL-C / TC / TG: plasma. In kind it is in vivo. From the text:
Obeticholic acid and Ezetimibe each are formulated with 10% Kolliphor HS 15 (BASF, Lot. No. 21466288K0) to a desired concentration.
78 specific pathogen free (SPF) male golden hamsters were provided, each with a body weight (BW) around 70 to 90 g, and commercially available from Beijing Vital River Laboratory Animal Technology Co., Ltd. Animal permit number is SCXK (Jing) 2012-0001.
10 golden hamsters were fed with a base diet as a normal group, while 68 golden hamsters were fed with a high-fat diet formulated with 0.3% cholesterol, 12.5% palm oil and 87.2% base diet upon purchased. All of them had free access to water, and kept in a same light rhythm (day time/night time: 10 h/14 h). After 3 weeks of feed, the golden hamsters were fasted for 14 hours, with free access to water, and then sampled for blood in a volume of 0.8 mL from posterior orbital venous plexus the next day. The blood samples added with sodium heparin for anticoagulation were centrifuged at 5000 r·min^−1 for 10 minutes, and 300 μL of supernatant for each sample was transferred into an assay cup (in volume of microliter grade) of the Sysmex CHEX-180 automatic biochemical analyzer for determination of levels of TC, TG, LDL-C, HDL-C and ALT, with results for screening of the hamsters.
6 out of 10 golden hamsters fed with the base diet were selected as a normal group, while 30 out of 68 golden hamsters fed with the high-fat diet were grouped into 3 experimental groups randomly (i.e. 10 hamsters for each group), respectively named model group, obeticholic acid group (1 mg/kg) and obeticholic acid (1 mg/kg)+Ezetimibe (1 mg/kg) group. From the first administration at PM 4:00 of the day after grouping, the 3 experimental groups were started to be each administered in a dosage of 10 mL·kg^−1, where the model group was administered with 10% Kolliphor in an equal volume. During administration, the normal group was still fed with the base diet, and the 3 experimental groups were fed with the high-fat diet. At 2 weeks of administration, all the golden hamsters were fasted but accessible to water overnight, and anesthetized with ethyl ether on the morning of the next day for collection of blood samples (in a volume of 0.8 mL) from the posterior orbital venous plexus. The blood samples added with sodium heparin for anticoagulation were centrifuged at 5000 r·min^−1 for 10 minutes, and 300 μL of plasma for each sample was transferred into the Sysmex CHEX-180 automatic biochemical analyzer for determination of levels of TC, TG, LDL-C, HDL-C, ALT, AST and ALP. At 4 weeks of administration, plasma of each hamster was collected for determination of levels of TC, TG LDL-C, HDL-C, ALT, AST and ALP. Afterwards, the hamsters were anesthetized with ethyl ether deeply, followed by weighting and laparotomy by an abdominal median incision for observation of size, color and texture of liver. After photographed, the liver was taken out, washed with saline and dried with filter paper, and weighted for calculation of liver index. Subsequently, left lobe of liver was cut out quickly and placed into 10% of neutral buffered formalin for immobilization, followed by preparation of paraffin sections (with HE staining) for observation of change of liver tissue pathology.
The results are represented in x±s, and comparison among groups is performed by t-test.

The conditions of data set [3]: patients in an obeticholic acid treatment group; cited from earlier work.
[4] abbreviates: after 4 weeks of administration.
Setting [5] is: after 2 weeks of administration.

SMILES strings stand for the structures.

In the case of `O=C1[C@H](CC[C@H](O)c2ccc(F)cc2)[C@@H](c2ccc(O)cc2)N1c1ccc(F)cc1` [Ezetimibe], in data set [1] (Ezetimibe 0.3 mg/kg), the ALP level entry was “reduces ALP level slightly”; the “fat content in liver cells (pathological sections of liver tissues, FIG. 3)” value is listed as “not reducing fat content in liver significantly”; the “infiltration and aggregation of inflammatory cells (pathological sections of liver tissues, FIG. 3)” value is reported as “ameliorating”; the “level of LDL in plasma” value is reported as “reduces levels of triglyceride, cholesterol, LDL, liver function enzymes in plasma significantly”. Also, in data set [1] (Ezetimibe 0.3 mg/kg), the “level of cholesterol in plasma” value is listed as “reduces levels of triglyceride, cholesterol, LDL, liver function enzymes in plasma significantly”; the “level of triglyceride in plasma” value is “reduces levels of triglyceride, cholesterol, LDL, liver function enzymes in plasma significantly”; the “levels of liver function enzymes (alanine aminotransferase and aspartate aminotransferase) in plasma” value is “reduces levels of triglyceride, cholesterol, LDL, liver function enzymes in plasma significantly”. Further, the “metabolism by a primary drug metabolic enzyme (cytochrome p450)” value in the data set on cytochrome p450 was “barely metabolized”.
As to `CC[C@H]1[C@@H](O)[C@@H]2[C@H](CC[C@]3(C)[C@@H]([C@H](C)CCC(=O)O)CC[C@@H]23)[C@@]2(C)CC[C@@H](O)C[C@@H]12` [Obeticholic acid, obeticholic acid], in data set [2] (setting [4]), the “liver index (%)” value was 5.15 ± 0.33%, the ALP is listed as 196.30 ± 18.91 U · L^−1, the ALT amounted to 165.20 ± 44.90 U · L^−1 and the AST is reported as 80.80 ± 13.13 U · L^−1. In data set [2] (setting [4]), this compound returned an HDL-C of 3.51 ± 0.71 mmol/L, an LDL-C of 16.04 ± 13.52 mmol/L, a TC of 22.89 ± 5.91 mmol/L and a TG of 2.07 ± 0.97 mmol/L. Also, in data set [2] (setting [5]), the ALP was found to be 190.20 ± 26.30 U · L^−1, the ALT is reported as 120.50 ± 41.78^ U · L^−1, the AST came out at 59.20 ± 14.01 U · L^−1 and the HDL-C worked out at 2.70 ± 0.37 mmol/L. In data set [2] (setting [5]), the LDL-C is 7.07 ± 3.22 mmol/L, the TC is given as 14.32 ± 3.15^ mmol · L^−1 and the TG was 2.20 ± 0.52 mmol/L. The “blocking the progression of liver fibrosis (pathological sections of liver tissues)” value in data set [1] was “no effect”. In addition, the “infiltration and aggregation of inflammatory cells (pathological sections of liver tissues, FIG. 3)” value in data set [1] (Ezetimibe 0.3 mg/kg) is recorded as “no effect”. In addition, in data set [3], the “level of high density lipoprotein compared to a placebo control” value is “lower”, the “level of low density lipoprotein compared to a placebo control” value is “higher” and the “level of total cholesterol compared to a placebo control” value was “higher”.

Values taken from US20190083459A1, “PHARMACEUTICAL COMPOSITION AND USE THEREOF” (WATERSTONE PHARMACEUTICALS(WUHAN) CO., LTD., priority 2016, published 2019).
